Test [1] deals with erythrocytic stages of P. falciparum. Description: [3H]-hypoxanthine incorporation assay with extract, P. falciparum strain K1. The test is classed as cell-based, Plasmodium falciparum. To be noted: extract at a dilution of 160 times. Here is the method: In vitro activity of extract dilutions were tested against erythrocytic stages of P. falciparum by a modified [3H]-hypoxanthine incorporation assay (Scala, F., Fattorusso, E., Menna, M., Taglialatela-Scafati, O., Tiemey, M., Kaiser, M., Tasdemir, D., 2010. Bromopyrrole alkaloids as lead compounds against protozoan parasites. Marine Drugs 8, 2162-2174.) using the […] strain K1. The standard drug used as a positive control was amodiaquine.
Briefly, parasite cultures incubated in RPMI 1640 medium with 5% Albumax (without hypoxanthine) were exposed to serial extract dilutions in microtiter plates. After 48 h of incubation at 37 ° C. in a reduced oxygen atmosphere, 0.5 μCi 3H-hypoxanthine was added to each well. Cultures were incubated for a further 24 h before they were harvested onto glass-fiber filters and washed with distilled water. The radioactivity was counted using a Betaplate™ liquid scintillation counter (Wallac, Zurich, Switzerland). The results were recorded as counts per minute (CPM) per well at each drug concentration and expressed as percentage of the untreated controls. IC50 values were calculated from graphically plotted dose-response curves. Each IC50 value obtained is the mean of at least two separate experiments performed in duplicate (the variation is maximum 20%).

Test [2] concerns P. falciparum. Description: [3H]-hypoxanthine incorporation, growth rate of P. falciparum (Example 7). The test is classed as cell-based, Plasmodium falciparum. The note with it: [3H]-hypoxanthine incorporation after 48 hrs, 3 fold dilution series, FIG. 15. Here is the method: 15.3 mg 2-Methyl-3-nonyloxiran-2-amine obtained in example 6 was mixed with 100 μl DMSO (Dimethyl sulfoxid) to obtain a stock solution. A first solution was prepared by mixing 100 uL of the stock solution with 400 uL of parasite media. Subsequently this solution was diluted in 15 dilution series, each dilution serie being diluted 3 fold. The same protecol as used in example 6 was applied for this experiment.
Specifically, the incorporation of [3H]-hypoxanthine was used as a measure for the life conditions of P. falciparum. Parasites were syncronised to ring stages by […] treatment and then incubated at 0.3% parasitemia at 5% haematocrit in 100 uL of growth medium containing [3H]-hypoxanthine over one cycle of replication, i.e. 48 hrs. Each experiment was performed in triplets.

Test [3] relates to MRSA (meticillin-resistant staphylococcus aureusis). Kind of test: MIC determination for MRSA. The note with it: Staphylococcus aureus, dilution series, read-out: MIC (Minimum Inhibitory Concentration). The test is classed as cell-based. Here is the method: (§1) 15.3 mg 2-Methyl-3-nonyloxiran-2-amine obtained in example 6 was mixed with 100 μl DMSO (Dimethyl sulfoxid) to obtain a stock solution. The stock solution was used for determining the MIC (Minimum Inhibitory Concentration) for MRSA (meticillin-resistant staphylococcus aureusis) and MSSA (meticillin-sensitive staphylococcus aureusis).

For test [4], the system named is MSSA (meticillin-sensitive staphylococcus aureusis). Description: MIC determination for MSSA. The test is classed as cell-based. The note with it: Staphylococcus aureus, dilution series, read-out: MIC (Minimum Inhibitory Concentration). Here is the method: as §1

In brackets after ≈: the same amount, converted by molar mass.

Consider `CCN(CC)Cc1cc(Nc2ccnc3cc(Cl)ccc23)ccc1O` [amodiaquine], for which the “[3H]-hypoxanthine incorporation value” in test [1] is given as 47.5 CPM.

Turning to `CCCCCCCCCC1OC1(C)N` (stereo not shown) [2-Methyl-3-nonyloxiran-2-amine], the “growth rate of P. Falciparum” value in test [2] is on record as “concentration dependent inhibition”. For the same compound, the MIC in test [3] turned out to be 38.3 mg/mL (≈ 192 mM); in test [4], 9600 µg/mL (≈ 48.2 mM).

Source of the values: patent US20160102067A1, “OXIRAN AMINES” (V-BIOTEK HOLDING APS, priority 2012, published 2016).
